Experiments:
Assay type in all cases: in vivo
[1] = tested on: Orchid thrips (Dichromothrips corbetti); test: Orchid thrips floral-immersion test; details: 72 hours after treatment, read-out: mortality in comparison with untreated controls
Procedure: B.5 Orchid Thrips (Dichromothrips Corbetti)
Dichromothrips corbetti adults used for bioassay are obtained from a colony maintained continuously under laboratory conditions. For testing purposes, the test compound is diluted in a 1:1 mixture of acetone:water (vol:vol), plus 0.01% vol/vol Alkamuls® EL 620 surfactant.
Thrips potency of each compound is evaluated by using a floral-immersion technique. Plastic petri dishes are used as test arenas. All petals of individual, intact orchid flowers are dipped into treatment solution and allowed to dry. Treated flowers are placed into individual petri dishes along with about 20 adult thrips. The petri dishes are then covered with lids. All test arenas are held under continuous light and a temperature of about 28° C. for duration of the assay. After 3 days, the numbers of live thrips are counted on each flower, and along inner walls of each petri dish. The percent mortality is recorded 72 hours after treatment.

[2] = tested on: Rice green leafhopper (Nephotettix virescens); test: Rice green leafhopper test, sprayed rice seedlings; details: after 72 hours, read-out: mortality in comparison with untreated controls
Procedure: B.7 Rice Green Leafhopper (Nephotettix virescens)
(§1) Rice seedlings are cleaned and washed 24 hours before spraying. The active compounds are formulated in 50:50 acetone:water (vol:vol), and 0.1% vol/vol surfactant (EL 620) is added. Potted rice seedlings are sprayed with 5 ml test solution, air dried, placed in cages and inoculated with 10 adults. Treated rice plants are kept at about 28-29° C. and relative humidity of about 50-60%. Percent mortality is recorded after 72 hours.

[3] = tested on: vetch aphid (Megoura viciae); test: Vetch aphid control, contact or systemic, broad bean leaf disks; details: foliar, 120 h, aphid mortality after 5 days, read-out: mortality in comparison with untreated controls
Procedure: B.3 Vetch Aphid (Megoura viciae)
For evaluating control of vetch aphid (Megoura viciae) through contact or systemic means the test unit consisted of 24-well-microtiter plates containing broad bean leaf disks.
The compounds were formulated using a solution containing 75% v/v water and 25% v/v DMSO. Different concentrations of formulated compounds were sprayed onto the leaf disks at 2.5 μl, using a custom built micro atomizer, at two replications.
After application, the leaf disks were air-dried and 5-8 adult aphids were placed on the leaf disks inside the microtiter plate wells. The aphids were then allowed to suck on the treated leaf disks and were incubated at about 23±10C and about 50±5% relative humidity for 5 days. Aphid mortality and fecundity was then visually assessed.

[4] = tested on: Mediterranean fruitfly (Ceratitis capitata); test: Mediterranean fruitfly control, insect diet in microtiter plates; details: 120 h, egg and larval mortality after 5 days, read-out: mortality in comparison with untreated controls
Procedure: B.2 Mediterranean Fruitfly (Ceratitis capitata)
For evaluating control of Mediterranean fruitfly (Ceratitis capitata) the test unit consisted of microtiter plates containing an insect diet and 50-80 C. capitata eggs. The compounds were formulated using a solution containing 75% v/v water and 25% v/v DMSO. Different concentrations of formulated compounds were sprayed onto the insect diet at 5 μl, using a custom built micro atomizer, at two replications.
After application, microtiter plates were incubated at about 28±1° C. and about 80±5% relative humidity for 5 days. Egg and larval mortality was then visually assessed.

[5] = tested on: Green soldier stink bug (Nezara viridula); test: Green soldier stink bug test, sprayed soybean pods; details: 120 h, after 5 days, 3rd instar, read-out: mortality in comparison with untreated controls
Procedure: B.8 Green Soldier Stink Bug (Nezara viridula)
The active compound is dissolved at the desired concentration in a mixture of 1:1 (vol:vol) distilled water:aceteone. Surfactant (Kinetic HV) is added at a rate of 0.01% (vol/vol). The test solution is prepared at the day of use.
Soybean pods were placed in microwavable plastic cups lined with moist filter paper and inoculated with ten 3rd instar N. viridula. Using a hand atomizer, approximately 2 ml solution is sprayed into each cup. Treated cups were kept at about 28-29° C. and relative humidity of about 50-60%. Percent mortality was recorded after 5 days.

[6] = tested on: Cowpea aphid (Aphis craccivora); test: Cowpea aphid test, sprayed potted cowpea plants; details: after 72 hours, read-out: mortality in comparison with untreated controls
Procedure: B.6 Cowpea Aphid (Aphis craccivora)
(§2) The active compound is dissolved at the desired concentration in a mixture of 1:1 (vol:vol) distilled water:acetone. Surfactant (Alkamuls® EL 620) is added at a rate of 0.1% (vol/vol). The test solution is prepared at the day of use.
Potted cowpea plants are colonized with approximately 50-100 aphids of various stages by manually transferring a leaf tissue cut from infested plant 24 hours before application. Plants are sprayed after the pest population has been recorded. Treated plants are maintained on light carts at about 28° C. Percent mortality is assessed after 72 hours.

[7] = tested on: Diamond back moth (Plutella xylostella); test: Diamond back moth test, dipped cabbage leaves; details: 72 hours after treatment, 3rd instar larvae, read-out: mortality in comparison with untreated controls
Procedure: B.10 Diamond Back Moth (Plutella xylostella)
The active compound is dissolved at the desired concentration in a mixture of 1:1 (vol:vol) distilled water:aceteone. Surfactant (Alkamuls® EL 620) is added at a rate of 0.1% (vol/vol). The test solution is prepared at the day of use.
Leaves of cabbage were dipped in test solution and air-dried. Treated leaves were placed in petri dish eslined with moist filter paper and inoculated with ten 3rd instar larvae. Mortality was recorded 72 hours after treatment. Feeding damages were also recorded using a scale of 0-100%.

[8] = tested on: boll weevil (Anthonomus grandis); test: Boll weevil control, insect diet in 96-well microtiter plates; details: 120 h, egg and larval mortality after 5 days, read-out: mortality in comparison with untreated controls
Procedure: B.1 Boll Weevil (Anthonomus grandis)
For evaluating control of boll weevil (Anthonomus grandis) the test unit consisted of 96-well-microtiter plates containing an insect diet and 5-10 A. grandis eggs.
The compounds were formulated using a solution containing 75% v/v water and 25% v/v DMSO. Different concentrations of formulated compounds were sprayed onto the insect diet at 5 μl, using a custom built micro atomizer, at two replications.
After application, microtiter plates were incubated at about 25±10C and about 75±5% relative humidity for 5 days. Egg and larval mortality was then visually assessed.

[9] = tested on: Silverleaf whitefly (Bemisia argentifolii); test: Silverleaf whitefly test, sprayed cotton plants; details: 72 h, 3 days after treatment, adults, read-out: mortality in comparison with untreated controls
Description: B.12 Silverleaf Whitefly (Bemisia argentifolii)
(§3) The active compounds are formulated in cyclohexanone as a 10,000 ppm solution supplied in tubes. The tubes are inserted into an automated electrostatic sprayer equipped with an atomizing nozzle and they serve as stock solutions for which lower dilutions are made in 50% acetone:50% water (v/v). A nonionic surfactant (Kinetic®) is included in the solution at a volume of 0.01% (v/v).
Cotton plants at the cotyledon stage (one plant per pot) are sprayed by an automated electrostatic plant sprayer equipped with an atomizing spray nozzle. The plants are dried in the sprayer fume hood and then removed from the sprayer. Each pot is placed into a plastic cup and about 10 to 12 whitefly adults (approximately 3-5 days old) are introduced. The insects are collected using an aspirator and a nontoxic Tygon® tubing connected to a barrier pipette tip. The tip, containing the collected insects, is then gently inserted into the soil containing the treated plant, allowing insects to crawl out of the tip to reach the foliage for feeding. Cups are covered with a reusable screened lid. […] Mortality is assessed 3 days after treatment, compared to untreated control plants.

[10] = tested on: Southern armyworm (Spodoptera eridania); test: Southern armyworm test, sprayed lima bean plants; details: 96 h, 4 days after treatment, larvae, read-out: mortality in comparison with untreated controls
Procedure: B.13 Southern Armyworm (Spodoptera eridania)
as §3, with “were” for “are”, “served” for “serve”, “was” for “is”
Lima bean plants (variety Sieva) were grown 2 plants to a pot and selected for treatment at the 1st true leaf stage. Test solutions were sprayed onto the foliage by an automated electrostatic plant sprayer equipped with an atomizing spray nozzle. The plants were dried in the sprayer fume hood and then removed from the sprayer. Each pot was placed into perforated plastic bags with a zip closure. About 10 to 11 armyworm larvae were placed into the bag and the bags zipped closed. Test plants were maintained in a growth room at about 250C and about 20-40% relative humidity for 4 days, avoiding direct exposure to fluorescent light (24 hour photoperiod) to prevent trapping of heat inside the bags. Mortality and reduced feeding were assessed 4 days after treatment, compared to untreated control plants.

[11] = tested on: green peach aphid (Myzus persicae); test: Green peach aphid control, systemic, artificial diet under membrane; details: 72 h, aphid mortality after 3 days, read-out: mortality in comparison with untreated controls
Description: B.4 Green Peach Aphid (Myzus persicae)
For evaluating control of green peach aphid (Myzuspersicae) through systemic means, the test unit consists of 96-well-microtiter plates containing liquid artificial diet under an artificial membrane.
The compounds are formulated using a solution containing 75% v/v water and 25% v/v DMSO. Different concentrations of formulated compounds are pipetted into the aphid diet, using a custom built pipetter, at two replications.
After application, 5-8 adult aphids are placed on the artificial membrane inside the microtiter plate wells. The aphids are then allowed to suck on the treated aphid diet and incubated at about 23±10C and about 50±5% relative humidity for 3 days. Aphid mortality and fecundity is then visually assessed.

[12] = tested on: Cotton aphid (Aphis gossypih); test: Cotton aphid test, sprayed potted plants; details: after 72 hours, read-out: mortality in comparison with untreated controls
Procedure: B.11 Cotton Aphid (Aphis gossypih)
as §2
Potted cowpea plants were colonized with approximately 50-100 aphids of various stages by manually transferring a leaf tissue cut from infested plant 24 hours before application. Plants were sprayed after the pest population has been recorded. Treated plants are maintained on light carts at about 28° C. Percent mortality was assessed after 72 hours.

[13] = tested on: Rice brown plant hopper (Nilaparvata lugens); test: Rice brown plant hopper test, sprayed rice seedlings; details: after 72 hours, read-out: mortality in comparison with untreated controls
Procedure: B.9 Rice Brown Plant Hopper (Nilaparvata lugens)
as §1, with “compounds is” for “compounds are”, “acetone:water (vol:vol)” for “acetone:water (vol:vol),”, “620) was” for “620) is”

O=C(C[N+](=O)[O-])/N=c1\ccccn1Cc1ccc(Cl)nc1 [Compound E1.4]
mortality at 500 ppm [1]: ≥ 75%
mortality at 500 ppm [2]: ≥ 75%
mortality at 2500 ppm [3]: ≥ 75%
mortality at 2500 ppm [4]: ≥ 75%
mortality at 500 ppm [5]: > 75%
mortality at 500 ppm [6]: ≥ 75%
mortality at 500 ppm [7]: > 75%
mortality at 2500 ppm [8]: ≥ 75%
mortality at 500 ppm [9]: ≥ 75%
mortality at 500 ppm [10]: ≥ 75%
mortality at 2500 ppm [11]: ≥ 75%
mortality at 500 ppm [12]: > 75%
mortality at 500 ppm [13]: ≥ 75%

O=C(/N=c1\ccccn1Cc1ccc(Cl)nc1)C1([N+](=O)[O-])CC1c1ccccc1 (stereo not drawn) [Compound E2.3]
mortality at 2500 ppm [3]: ≥ 75%
mortality at 500 ppm [6]: ≥ 75%
mortality at 2500 ppm [11]: ≥ 75%

CC(C)/C=C(/C(=O)/N=c1\ccccn1Cc1ccc(Cl)nc1)[N+](=O)[O-] [Compound E3.1]
mortality at 500 ppm [1]: ≥ 75%
mortality at 500 ppm [2]: ≥ 75%
mortality at 2500 ppm [3]: ≥ 75%
mortality at 2500 ppm [4]: ≥ 75%
mortality at 500 ppm [6]: ≥ 75%
mortality at 500 ppm [9]: ≥ 75%
mortality at 2500 ppm [11]: ≥ 75%
mortality at 500 ppm [12]: > 75%

Reference: patent US20180179177A1, “N-ACYLIMINO HETEROCYCLIC COMPOUNDS FOR CONTROLLING INVERTEBRATE PESTS” (BASF SE, priority 2014, published 2018)
